Results published in EP1142883A1, “NOVEL HETEROCYCLIC COMPOUNDS AND DRUG COMPOSITIONS CONTAINING THE SAME” (Asahi Kasei Kabushiki Kaisha, priority 1998, dated 2000).

Experiments:
human β3 = molecular target: T1, human β3 (Homo sapiens, UniProt P13945); assay: Human β3-agonist activities: cAMP in CHO cells transfected with human β3 gene; type: cell-based; details: for Emax: CHO, read-out: *Intrinsic Activity (%); for EC50 / *Intrinsic Activity (%): cAMP, 30 minutes, CHO cells expressing human β3; for EC50: read-out: ED50 (the source's name); for *Intrinsic Activity (%): relative value as compared with isoproterenol
T1 construct: the full length human β3 gene was obtained from a human genomic library; expressed in transfected cells; host or cells: CHO (Chinese hamster ovary) cells, pcDNA3 vector, geneticin selection
T1 sequence (P13945 whole entry): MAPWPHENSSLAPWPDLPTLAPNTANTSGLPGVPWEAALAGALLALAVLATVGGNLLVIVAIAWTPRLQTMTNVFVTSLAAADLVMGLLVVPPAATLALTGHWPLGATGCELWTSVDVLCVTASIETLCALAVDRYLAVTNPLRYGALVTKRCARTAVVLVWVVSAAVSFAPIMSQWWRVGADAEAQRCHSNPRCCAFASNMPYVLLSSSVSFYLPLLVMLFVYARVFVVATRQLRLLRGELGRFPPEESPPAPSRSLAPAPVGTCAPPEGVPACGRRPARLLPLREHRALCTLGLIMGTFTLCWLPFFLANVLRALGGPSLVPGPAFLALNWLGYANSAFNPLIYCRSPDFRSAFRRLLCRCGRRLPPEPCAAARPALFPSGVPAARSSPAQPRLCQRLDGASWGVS
Procedure: Human β3-agonist activities were determined using CHO (Chinese hamster ovary) cells transfected with pcDNA3 (mfd. by Invitrogen) to which human β3 gene had been inserted. Human β3 fragment was first obtained from human adipose tissue cDNA (mfd. by Clonetech) by PCR using the primer of β3 (Krief, et al., J. Clin. Invest., 91, pp. 344-349 (1993)). The human β3 fragment obtained was then used as a probe and then the full length human β3 gene was obtained from a human genomic library (mfd. by Clonetech).
The above cells were cultured in a Ham F-12 medium supplemented with 10% fetal bovine serum (mfd. by Dainippon Pharmaceutical), 400 µg/mL geneticin (Gibco BRL), 100 U/mL penicillin and 100 µg/mL streptomycin. After placing these cells (5×10^5) into a 6-well plate and culturing them for 24 hours, they were allowed to stand on a serum-free Ham F-12 medium for 2 hours. The compound was first dissolved in DMSO, repeatedly diluted by ten times with Ham F-12 supplemented with 1 mM isobutylmethylxanthine and 1 mM ascorbic acid to a final concentration of 10^-5 to 10^-12 M, and then added to the cells.
After the cells were cultured for 30 minutes, the medium was removed followed by addition of 0.5 mL of 1 N NaOH. The medium was allowed to stand for 20 minutes and then 0.5 mL of 1 N acetic acid was added to the medium. The medium was stirred and centrifuged followed by quantitating cAMP with cAMP EIA kit (mfd. by Cayman). […]

[1] = Permeability through human small intestine epithelium (Caco-2 cell layer); details: human, Caco-2
Description: (§1) Human colon adenocarcinoma, Caco-2 cell, when cultured, spontaneously differenciates to form a cell layer consisting of a polar single layer having microvillus similar to small intestine epithelial cell. The presence of tight junction has been found out in the membrane formed. Therefore, the above cell layer can be used as a model system of human small intestine epithelium and is recognized as the simplest system to evaluate the permeability through a membrane of a drug orally administered to human. The specific experimental method is as follows.
(§2) Before the cells reached confluence, DMEM was removed and the flask was washed with PBS (phosphate buffered saline, pH 7.2, Ca, Mg free (Gibco BRL)) and treated with trypsin/EDTA to peel off the cells, which were then harvested.
(§3) After centrifugation (1000 rpm, 5 min), the cells were resuspended in DMEM at 4.4×10^5 cells/mL. The cells were seeded into Transwell cell culture chamber (mfd. by Costar) having a collagen-coated membrane filter (3 µm pores, 0.33 cm^2 growth area) at 0.15 mL/well (2×10^5 cells/cm^2, 24 well). After seeding, DMEM was renewed every other day. After culturing for 18 to 25 days, a membrane formed having a membrane resistance of at least 200 Ω · cm^2 was applied to the drug permeation experiment.
(§4) DMEMs in the cup side and base side of Transwell were removed and then replaced with a buffer for the permeation experiment (HBSS (Hanks Balanced Salt Solution, Gibco BRL), 10 mM Mes, pH 6.5 (mfd. by DOJINDO) or 10 mM Hepes, pH 7.4 (mfd. by DOJINDO) containing 25 mM glucose and 0.05% Tween 80). The cup side buffer (0.15 mL) was maintained at pH 6.5 and the base side buffer (0.8 mL) was maintained at pH 7.4. After pre-incubation at 37°C for 10 minutes, the cup side buffer was replaced with the buffer (pH 6.5) containing a drug (20-40 µM). With additionally incubating at 37°C, 80 µL aliquot of the base side buffer was sampled with the passage of time to quantitate the amount of the drug permeated into the base side buffer.
(§5) The amount of the drug contained in the base side buffer sampled with the passage of time was divided by the time to calculate the amount of the drug permeated per unit time (sec). It was then divided by the concentration of the drug added and the surface area of the membrane to calculate the permeability coefficient (Papp). That is, the permeability coefficient (Papp) is obtained by the following calculating formula.
(§6) In this connection, the quantitation of the drug was carried out with LC/MS or HPLC (detecting with fluorescence). The conditions of LC/MS and HPLC are as follows.

Caco-2 cell = assay: as above; details: Caco-2 layer, cup side pH 6.5, base side pH 7.4, drug 20-40 µM, 37°C
Description: as §1, §2, §3, §4, §5, §6

Row | *Intrinsic Activity (%) (human β3) | Permeability Coefficient Papp × 10^-6 (cm/s) (Caco-2 cell) | SMILES | Emax (human β3) | EC50 (human β3) | Papp A→B [1]
1 | – | – | CS(=O)(=O)N1COc2ccc([C@@H](O)CNCCOc3ccc4c(c3)[nH]c3ccccc34)cc21 [Example 3, (R)-5-[2-[2-(9H-carbazol-2-yloxy)ethylamino]-1-hydroxyethyl]-3-(methylsulfonyl)-2,3-dihydrobenzoxazole] | 70% | 65 nM | 1.03 ×10⁻⁶ cm/s
2 | – | – | CN(C)S(=O)(=O)n1c(=S)oc2ccc([C@@H](O)CNCCOc3ccc4c(c3)[nH]c3ccccc34)cc21 [Example 8, (R)-3-[(dimethylamino)sulfonyl]-5-[2-[2-(9H-carbazol-2-yloxy)ethylamino]-1-hydroxyethyl]-3-hydrobenzoxazol-2-thione] | 99% | 610 nM | –
3 | 99% | 0.54 × 10^-6 cm/s | O=c1[nH]c2cc([C@@H](O)CNCCOc3ccc4c(c3)[nH]c3ccccc34)ccc2o1 [Example 10, (R)-5-[2-[2-(9H-carbazol-2-yloxy)ethylamino]-1-hydroxyethyl]-3-hydrobenzoxazol-2-one] | – | 170 nM | –
4 | – | – | CS(=O)(=O)N1CCOc2ccc([C@@H](O)CNCCOc3ccc4c(c3)[nH]c3ccccc34)cc21 [Example 2, (R)-6-[2-[2-(9H-carbazol-2-yloxy)ethylamino]-1-hydroxyethyl]-4-(methylsulfonyl)-2,3-dihydro-1,4-benzoxazine] | 69% | 12 nM | 0.93 ×10⁻⁶ cm/s
5 | 76% | 0.78 × 10^-6 cm/s | CN(C)S(=O)(=O)n1c(=O)oc2ccc([C@@H](O)CNCCOc3ccc4c(c3)[nH]c3ccccc34)cc21 [Example 7, (R)-3-[(dimethylamino)sulfonyl]-5-[2-[2-(9H-carbazol-2-yloxy)ethylamino]-1-hydroxyethyl]-3-hydrobenzoxazol-2-one] | – | 100 nM | –
6 | – | – | CS(=O)(=O)N1CCCOc2ccc([C@@H](O)CNCCOc3ccc4c(c3)[nH]c3ccccc34)cc21 [Example 4, (R)-7-[2-[2-(9H-carbazol-2-yloxy)ethylamino]-1-hydroxyethyl]-5-(methylsulfonyl)-2H,3H,4H-benzo[b]1,4-oxazepine] | 107% | 620 nM | 1.93 ×10⁻⁶ cm/s

Row | SMILES | *Intrinsic Activity (%) (human β3) | Permeability Coefficient Papp × 10^-6 (cm/s) (Caco-2 cell) | Emax (human β3) | EC50 (human β3) | Papp A→B [1]
7 | CC(C)NCC(O)c1ccc(O)c(O)c1 (stereo not drawn) [Isoproterenol, reference compound] | 100% | – | – | – | –
